Laboratory results published in PubChem BioAssay (NCI).
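GI50 is the concentration that inhibits growth by half. TGI is the concentration that stops growth completely.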

Assays:
Assay in all cases: NCI anticancer screen, dose series, 384-well format
786-0 renal = tested on: 786-0 renal
A549 NSCLC = tested on: A549 NSCLC
ACHN renal = tested on: ACHN renal
EKVX NSCLC = tested on: EKVX NSCLC
HS 578T breast = tested on: HS 578T breast
HT29 colon = tested on: HT29 colon
MDA-MB-231 breast = tested on: MDA-MB-231 breast
NCI-H322M lung = tested on: NCI-H322M lung
OVCAR-5 ovarian = tested on: OVCAR-5 ovarian
RXF 393 renal = tested on: RXF 393 renal
SF-539 CNS = tested on: SF-539 CNS
SK-MEL-28 melanoma = tested on: SK-MEL-28 melanoma
SR leukemia = tested on: SR leukemia

| SMILES | GI50 (786-0 renal) | TGI (786-0 renal) | GI50 (A549 NSCLC) | TGI (A549 NSCLC) | GI50 (ACHN renal) | TGI (ACHN renal) | GI50 (EKVX NSCLC) | TGI (EKVX NSCLC) | GI50 (HS 578T breast) | TGI (HS 578T breast) | GI50 (HT29 colon) | TGI (HT29 colon) | GI50 (MDA-MB-231 breast) | TGI (MDA-MB-231 breast) | GI50 (NCI-H322M lung) | TGI (NCI-H322M lung) | GI50 (OVCAR-5 ovarian) | TGI (OVCAR-5 ovarian) | GI50 (RXF 393 renal) | TGI (RXF 393 renal) | other results |
| --- | --- | --- | --- | --- | --- | --- | --- | --- | --- | --- | --- | --- | --- | --- | --- | --- | --- | --- | --- | --- | --- |
| Cc1cc([N+](=O)[O-])c(NS(=O)(=O)c2cccc(C(=O)O)c2)cc1-c1cccnc1 | > 100 µM | > 100 µM | > 100 µM | > 100 µM | > 100 µM | > 100 µM | > 100 µM | > 100 µM | > 100 µM | > 100 µM | > 100 µM | > 100 µM | > 100 µM | > 100 µM | > 100 µM | > 100 µM | > 100 µM | > 100 µM | > 100 µM | > 100 µM | GI50 (SF-539 CNS): > 100 µM; TGI (SF-539 CNS): > 100 µM; GI50 (SK-MEL-28 melanoma): > 100 µM; TGI (SK-MEL-28 melanoma): > 100 µM; GI50 (SR leukemia): > 61.5 µM; TGI (SR leukemia): > 100 µM |
| CC1=C(c2cccc(O)c2)[C@H](c2ccc(OCCN3CC(CF)C3)cc2)Oc2ccc(O)cc21 | 2.65 µM | 7.32 µM | 9.02 µM | 21.2 µM | 11.1 µM | 23.2 µM | 5.1 µM | 17.5 µM | 2.48 µM | 12 µM | 1.94 µM | 3.58 µM | 6.48 µM | 19.2 µM | 6.69 µM | 19.6 µM | 10.3 µM | 22.1 µM | 1.87 µM | 5.29 µM | GI50 (SF-539 CNS): 2.03 µM; TGI (SF-539 CNS): 4.26 µM; GI50 (SK-MEL-28 melanoma): 3.05 µM; TGI (SK-MEL-28 melanoma): 11.6 µM; GI50 (SR leukemia): 1.79 µM; TGI (SR leukemia): 3.23 µM |
